The target in assay [1] is T1, Olfactory receptor 51E2 (Homo sapiens) (UniProt Q9H255).
T1 sequence (whole entry): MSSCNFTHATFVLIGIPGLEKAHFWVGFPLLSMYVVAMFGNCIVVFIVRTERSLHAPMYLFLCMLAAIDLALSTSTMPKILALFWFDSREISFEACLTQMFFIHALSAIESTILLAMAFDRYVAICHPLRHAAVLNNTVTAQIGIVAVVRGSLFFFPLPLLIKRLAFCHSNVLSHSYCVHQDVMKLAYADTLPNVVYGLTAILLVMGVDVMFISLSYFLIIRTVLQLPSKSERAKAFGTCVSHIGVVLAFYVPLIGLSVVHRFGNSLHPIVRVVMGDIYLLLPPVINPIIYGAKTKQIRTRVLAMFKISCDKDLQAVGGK
Nature of the assay: Agonist activity at PSGR/OR51E2 (unknown origin) expressed in human Hana3A cells co-transfected with CRE-Luc by luciferase reporter gene assay relative to control 1 mM propionic acid. In kind it is functional, cell-based. (In a reporter assay the amount or activity of a reporter protein is the signal.)

Assay [2] addresses T2, Olfactory receptor 51E2 (Homo sapiens, UniProt Q9H255).
T2 sequence (Q9H255 whole entry): T1 sequence (whole entry)
The assay is described as follows: Agonist activity at PSGR/OR51E2 (unknown origin) expressed in human Hana3A cells co-transfected with CRE-Luc by luciferase reporter gene assay. Format: functional, cell-based.

Assay [3] addresses T1, Olfactory receptor 51E2 (Homo sapiens). The assay is described as follows: Agonist activity at PSGR/OR51E2 in human LNCaP cells assessed as induction of neuroendocrine trans-differentiation related gene expression by measuring increase in OR51E2 mRNA expression incubated for 12 days by RT-PCR analysis. In kind it is cell-based.
Assay [4] has the same target. The assay is described as follows: Agonist activity at PSGR/OR51E2 in human LNCaP cells assessed as induction of neuroendocrine trans-differentiation related gene expression by measuring increase in NSE mRNA expression incubated for 12 days by RT-PCR analysis. In kind it is cell-based.
For assay [5] the target is unchanged. Nature of the assay: Agonist activity at PSGR/OR51E2 in human LNCaP cells assessed as induction of neuroendocrine trans-differentiation related gene expression by measuring increase in AMACR mRNA expression incubated for 12 days by RT-PCR analysis. In kind it is cell-based.
The target is the same in assay [6]. The assay is described as follows: Agonist activity at PSGR/OR51E2 in human LNCaP cells assessed as induction of change in extracellular metabolites level by measuring asparagine level at 100 nM incubated for 72 hrs by GC/MS analysis. In kind it is cell-based.
The target is the same in assay [7]. Nature of the assay: Agonist activity at PSGR/OR51E2 in human LNCaP cells assessed as induction of change in extracellular metabolites level by measuring glutaric acid level at 100 nM incubated for 72 hrs by GC/MS analysis. Format: cell-based.
The target is the same in assay [8]. Nature of the assay: Agonist activity at PSGR/OR51E2 in human LNCaP cells assessed as induction of change in extracellular metabolites level by measuring guanine level at 100 nM incubated for 72 hrs by GC/MS analysis. Format: cell-based.
Assay [9] shares this target. Nature of the assay: Agonist activity at PSGR/OR51E2 in human LNCaP cells assessed as induction of change in extracellular metabolites level by measuring cysteine level at 100 nM incubated for 72 hrs by GC/MS analysis. Format: cell-based.
The target is the same in assay [10]. Nature of the assay: Agonist activity at PSGR/OR51E2 in human LNCaP cells assessed as induction of change in extracellular metabolites level by measuring alpha-ketoglutaric acid level at 100 nM incubated for 72 hrs by GC/MS analysis. Format: cell-based.
Assay [11] shares this target. The assay is described as follows: Agonist activity at PSGR/OR51E2 in human LNCaP cells assessed as induction of change in extracellular metabolites level by measuring 2-ketoleucine level at 100 nM incubated for 72 hrs by GC/MS analysis. In kind it is cell-based.
The target is the same in assay [12]. The assay is described as follows: Agonist activity at PSGR/OR51E2 in human LNCaP cells assessed as induction of change in extracellular metabolites level by measuring hydroquinone level at 100 nM incubated for 72 hrs by GC/MS analysis. In kind it is cell-based.
Assay [13] has the same target. The assay is described as follows: Agonist activity at PSGR/OR51E2 in human LNCaP cells assessed as induction of change in extracellular metabolites level by measuring succinic acid level at 100 nM incubated for 72 hrs by GC/MS analysis. In kind it is cell-based.
Assay [14] shares this target. The assay is described as follows: Agonist activity at PSGR/OR51E2 in human LNCaP cells assessed as induction of change in extracellular metabolites level by measuring glyceric acid level at 100 nM incubated for 72 hrs by GC/MS analysis. Format: cell-based.
The target is the same in assay [15]. The assay is described as follows: Agonist activity at PSGR/OR51E2 in human LNCaP cells assessed as induction of change in extracellular metabolites level by measuring n-acetylaspartic acid level at 100 nM incubated for 72 hrs by GC/MS analysis. Format: cell-based.
Assay [16] shares this target. Nature of the assay: Agonist activity at PSGR/OR51E2 in human LNCaP cells assessed as induction of change in extracellular metabolites level by measuring hydroxyprolines level at 100 nM incubated for 72 hrs by GC/MS analysis. In kind it is cell-based.
The target is the same in assay [17]. Nature of the assay: Agonist activity at PSGR/OR51E2 in human LNCaP cells assessed as induction of change in extracellular metabolites level by measuring 2-deoxyglucose level at 100 nM incubated for 72 hrs by GC/MS analysis. In kind it is cell-based.
For assay [18] the target is unchanged. Nature of the assay: Agonist activity at PSGR/OR51E2 in human LNCaP cells assessed as induction of change in extracellular metabolites level by measuring beta-alanine level at 100 nM incubated for 72 hrs by GC/MS analysis. Format: cell-based.
Assay [19] has the same target. Nature of the assay: Agonist activity at PSGR/OR51E2 in human LNCaP cells assessed as induction of change in extracellular metabolites level by measuring benzoic-acid level at 100 nM incubated for 72 hrs by GC/MS analysis. In kind it is cell-based.
Assay [20] has the same target. The assay is described as follows: Agonist activity at PSGR/OR51E2 in human LNCaP cells assessed as induction of change in extracellular metabolites level by measuring urea level at 100 nM incubated for 72 hrs by GC/MS analysis. In kind it is cell-based.
The target is the same in assay [21]. The assay is described as follows: Agonist activity at PSGR/OR51E2 in human LNCaP cells assessed as induction of change in intracellular metabolites level by measuring tyramine level at 100 nM incubated for 72 hrs by GC/MS analysis. In kind it is cell-based.
Assay [22] has the same target. Nature of the assay: Agonist activity at PSGR/OR51E2 in human LNCaP cells assessed as induction of change in intracellular metabolites level by measuring adenosine/inosine level at 100 nM incubated for 72 hrs by GC/MS analysis. In kind it is cell-based.
Assay [23] has the same target. Nature of the assay: Agonist activity at PSGR/OR51E2 in human LNCaP cells assessed as induction of change in intracellular metabolites level by measuring guanine level at 100 nM incubated for 72 hrs by GC/MS analysis. Format: cell-based.
For assay [24] the target is unchanged. Nature of the assay: Agonist activity at PSGR/OR51E2 in human LNCaP cells assessed as induction of change in intracellular metabolites level by measuring alanine level at 100 nM incubated for 72 hrs by GC/MS analysis. In kind it is cell-based.
The target is the same in assay [25]. The assay is described as follows: Agonist activity at PSGR/OR51E2 in human LNCaP cells assessed as induction of change in intracellular metabolites level by measuring pantothenic acid level at 100 nM incubated for 72 hrs by GC/MS analysis. Format: cell-based.
Assay [26] shares this target. Nature of the assay: Agonist activity at PSGR/OR51E2 in human LNCaP cells assessed as induction of change in intracellular metabolites level by measuring fumaric acid level at 100 nM incubated for 72 hrs by GC/MS analysis. In kind it is cell-based.
Assay [27] has the same target. Nature of the assay: Agonist activity at PSGR/OR51E2 in human LNCaP cells assessed as induction of change in intracellular metabolites level by measuring malic acid level at 100 nM incubated for 72 hrs by GC/MS analysis. Format: cell-based.
The target is the same in assay [28]. The assay is described as follows: Agonist activity at PSGR/OR51E2 in human LNCaP cells assessed as induction of change in intracellular metabolites level by measuring serine level at 100 nM incubated for 72 hrs by GC/MS analysis. In kind it is cell-based.
For assay [29] the target is unchanged. Nature of the assay: Agonist activity at PSGR/OR51E2 in human LNCaP cells assessed as induction of change in intracellular metabolites level by measuring threonine level at 100 nM incubated for 72 hrs by GC/MS analysis. Format: cell-based.
Assay [30] shares this target. Nature of the assay: Agonist activity at PSGR/OR51E2 in human LNCaP cells assessed as induction of change in intracellular metabolites level by measuring fructose-6-phosphate level at 100 nM incubated for 72 hrs by GC/MS analysis. Format: cell-based.
Assay [31] has the same target. The assay is described as follows: Agonist activity at PSGR/OR51E2 in human LNCaP cells assessed as induction of change in intracellular metabolites level by measuring beta-alanine level at 100 nM incubated for 72 hrs by GC/MS analysis. In kind it is cell-based.
Assay [32] has the same target. The assay is described as follows: Agonist activity at PSGR/OR51E2 in human LNCaP cells assessed as induction of change in intracellular metabolites level by measuring lactic acid level at 100 nM incubated for 72 hrs by GC/MS analysis. In kind it is cell-based.
For assay [33] the target is unchanged. Nature of the assay: Agonist activity at PSGR/OR51E2 in human LNCaP cells assessed as induction of change in intracellular metabolites level by measuring glucose-6-phosphate level at 100 nM incubated for 72 hrs by GC/MS analysis. In kind it is cell-based.
The target is the same in assay [34]. Nature of the assay: Agonist activity at PSGR/OR51E2 in human LNCaP cells assessed as induction of change in intracellular metabolites level by measuring tyrosine level at 100 nM incubated for 72 hrs by GC/MS analysis. In kind it is cell-based.
The target is the same in assay [35]. The assay is described as follows: Agonist activity at PSGR/OR51E2 in human LNCaP cells assessed as induction of change in intracellular metabolites level by measuring urea level at 100 nM incubated for 72 hrs by GC/MS analysis. In kind it is cell-based.

Activity calls are given as the source filed them. The rule behind the calls is not given here.

On to H-RPPGFSPFR-OH, for which the Ratio in [1] was determined as 0.762.

One may read the EC50 as the concentration giving half of the maximal effect. Low readings indicate a more potent agent, high ones a less potent agent. Compound H-RPPGFSPFR-OH [BRADYKININ] registered an EC50 in [2] of 1.3 nM.

With `Oc1ccc(-c2[o+]c3cc(O)cc(O)c3cc2O)cc1`, the Ratio in assay [1] amounted to 0.621.

`Nc1nc2[nH]c(O)nc2c(=O)[nH]1` displayed an EC50 in [2] of 0.00044 nM.

As to `C[C@]12CC[C@H]3[C@@H](CCC4=CC(=O)CC[C@@]43CO)[C@@H]1CCC2=O`, the outcome in assay [3], in assay [4], in assay [5], in [6], in [7] and in [8] was Active. Further, the result in assay [9], in [10], in assay [11], in assay [12], in [13] and in assay [14] was Active. The result in [15], in assay [16], in assay [17], in [18], in assay [19] and in [20] was Active. Also, the result in [21], in assay [22], in assay [23], in [24], in assay [25] and in assay [26] was Active. In addition, the result in [27], in [28], in assay [29], in assay [30], in [31] and in [32] was Active. Moreover, the outcome in assay [33], in [34] and in assay [35] was Active.

On to `O=C1CN=CN1`, for which the Ratio in [1] was determined as 0.678.

For the compound `COc1cc(CCC(=O)CC(=O)CCc2ccc(O)c(OC)c2)ccc1O`, in [1], the Ratio worked out at 0.284.

The values are drawn from ChEMBL document CHEMBL4482311, “Modulators of Prostate-Specific G-Protein Receptor (PSGR/OR51E2) and Methods of Using Same” (2018).
